For test [1], the target named is T1, ABL1 (64-515) (Homo sapiens (Human), UniProt P00519). The test can be described thus: Caliper ABL1 (64-515) assay (microfluidic mobility shift). The class given is biochemical.
Procedure: Expression and purification of human ABL was performed using standard expression purification procedures. […] The His-ABL was expressed in E. coli BL21 (DE3) and the ABL proteins were isolated by Ni-affinity on a Ni-NTA column (Qiagen). The His-tag was removed by PreScission protease (GE Healthcare) and the non-phosphoprylated ABL further purified on a Mono Q HR 10/10 (GE Healthcare, mono-phosphorylated ABL is about 10-20% of total ABL protein) and HiLoad 16/60 Superdex 200 size exclusion column (GE Healthcare).
All assays were performed in 384-well microtiter plates. Each assay plate contained 8-point serial dilutions for 40 test compounds, as well as four 8-point serial dilutions of staurosporine as a reference compound, plus 16 high and 16 low controls. Liquid handling and incubation steps were done on a Thermo CatX workstation equipped with Innovadyne Nanodrop Express. Between pipetting steps, tips were cleaned in wash cycles using wash buffer.
The assay plates were prepared by addition of 50 nL per well of compound solution in 90% DMSO. […] Plates with terminated kinase reactions were transferred to the Caliper LC3000 workstations for reading. Phosphorylated and unphosphorylated peptides were separated using the Caliper microfluidic mobility shift technology. Briefly, samples from terminated kinase reactions were applied to the chip. Analytes are transported through the chip by constant buffer flow and the migration of the substrate peptide is monitored by the fluorescence signal of its label. Phosphorylated peptide (product) and unphosphorylated peptide (substrate) are separated in an electric field by their charge/mass ratio. Kinase activities were calculated from the amounts of formed phospho-peptide. IC50 values were determined from percent inhibition values at different compound concentrations by non-linear regression analysis.
Test compounds were dissolved in DMSO (10 mM) and transferred into 1.4 mL flat bottom or V-shaped Matrix tubes carrying a unique 2D matrix. The stock solutions were stored at +2° C. if not used immediately. For the test procedure the vials were defrosted and identified by a scanner whereby a working sheet was generated that guided the subsequent working steps.
Compound dilutions were made in 96-well plates. This format enabled the assay of maximally 40 individual test compounds at 8 concentrations (single points) including 4 reference compounds. The dilution protocol included the production of “pre-dilution plates”, “master plates” and “assay plates”.
Polypropylene 96-well plates were used as pre-dilution plates. […] All dilution steps were done on a HamiltonSTAR robot.
These plates were used directly for the assay which was performed in a total volume of 9.05 μL.
Test [2] concerns the target T1, ABL1 (64-515). The test can be described thus: Radio ABL1 (64-515) assay (radiometric filter-binding). The class given is biochemical.

T1 sequence (P00519 64-515): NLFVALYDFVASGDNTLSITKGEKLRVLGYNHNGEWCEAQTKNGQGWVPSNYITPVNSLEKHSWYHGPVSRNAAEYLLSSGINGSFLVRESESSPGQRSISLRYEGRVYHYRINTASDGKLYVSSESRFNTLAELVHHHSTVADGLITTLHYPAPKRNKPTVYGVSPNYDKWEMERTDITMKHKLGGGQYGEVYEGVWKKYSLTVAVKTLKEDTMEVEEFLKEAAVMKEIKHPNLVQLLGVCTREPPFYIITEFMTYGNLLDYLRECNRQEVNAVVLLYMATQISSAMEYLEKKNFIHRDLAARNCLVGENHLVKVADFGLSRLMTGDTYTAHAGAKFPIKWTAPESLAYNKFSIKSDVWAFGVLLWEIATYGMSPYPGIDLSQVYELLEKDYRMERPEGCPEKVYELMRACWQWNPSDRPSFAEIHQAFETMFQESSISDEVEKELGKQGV

In the case of `CN(CCO)c1ncc(C(=O)Nc2ccc(SC(F)(F)F)cc2)cc1-c1cncnc1` [Example 192, 6-((2-Hydroxyethyl)(methyl)amino)-5-(pyrimidin-5-yl)-N-(4-((trifluoromethyl)thio)phenyl)nicotinamide], the values for the 50% inhibitory concentration (IC50) in test [1] and in test [2] were 1.3 nM and 2 nM, respectively.
The matching figures for `CN(CCO)c1ncc(C(=O)Nc2ccc(SC(F)(F)F)cc2)cc1-c1cncc(F)c1` [Example 193, 5′-Fluoro-2-((2-hydroxyethyl)(methyl)amino)-N-(4-((trifluoromethyl)thio)phenyl)-[3,3′-bipyridine]-5-carboxamide]: 0.4 nM and 2.3 nM.
For the molecule `CN(CCO)c1ncc(C(=O)Nc2ccc(SC(F)(F)F)cc2)cc1-c1cncc(C#N)c1` [Example 194, 5′-Cyano-2-((2-hydroxyethyl)(methyl)amino)-N-(4-((trifluoromethyl)thio)phenyl)-[3,3′-bipyridine]-5-carboxamide], the IC50 in test [1] is 1.4 nM; in test [2], 5 nM.
As to `CCN(CCO)c1ncc(C(=O)Nc2ccc(SC(F)(F)F)cc2)cc1-c1cncnc1` [Example 195, 6-(Ethyl(2-hydroxyethyl)amino)-5-(pyrimidin-5-yl)-N-(4-((trifluoromethyl)thio)phenyl)nicotinamide], the IC50 in test [1] was below 0.13 nM; in test [2], 3 nM.
The matching figures for `CCN(CCO)c1ncc(C(=O)Nc2ccc(SC(F)(F)F)cc2)cc1-c1cncc(F)c1` [Example 196, 2-(Ethyl(2-hydroxyethyl)amino)-5′-fluoro-N-(4-((trifluoromethyl)thio)phenyl)-[3,3′-bipyridine]-5-carboxamide]: 0.7 nM and 5.1 nM.
The matching figures for `CCN(CCO)c1ncc(C(=O)Nc2ccc(SC(F)(F)F)cc2)cc1-c1cncc(C#N)c1` [Example 197, 5′-Cyano-2-(ethyl(2-hydroxyethyl)amino)-N-(4-((trifluoromethyl)thio)phenyl)-[3,3′-bipyridine]-5-carboxamide]: 1.8 nM and 16 nM.
The matching figures for `O=C(Nc1ccc(OC(F)(F)F)c(F)c1)c1cnc(N2CC[C@@H](O)C2)c(-c2cncc(F)c2)c1` [Example 199, (R)-5′-Fluoro-N-(3-fluoro-4-(trifluoromethoxy)phenyl)-2-(3-hydroxypyrrolidin-1-yl)-[3,3′-bipyridine]-5-carboxamide]: 1.2 nM and 3 nM.
Take `N#Cc1cncc(-c2cc(C(=O)Nc3ccc(OC(F)(F)F)c(F)c3)cnc2N2CC[C@@H](O)C2)c1` [Example 200, (R)-5′-Cyano-N-(3-fluoro-4-(trifluoromethoxy)phenyl)-2-(3-hydroxypyrrolidin-1-yl)-[3,3′-bipyridine]-5-carboxamide]: the IC50 in test [1] is 1.2 nM; in test [2] it was 4 nM.
The matching figures for `O=C(Nc1ccc(OC(F)(F)F)c(F)c1)c1cnc(N2CC[C@H](CO)C2)c(-c2cncc(F)c2)c1` [Example 202, (S)-5′-Fluoro-N-(3-fluoro-4-(trifluoromethoxy)phenyl)-2-(3-(hydroxymethyl)pyrrolidin-1-yl)-[3,3′-bipyridine]-5-carboxamide]: 0.7 nM and 3.4 nM.
For `N#Cc1cncc(-c2cc(C(=O)Nc3ccc(OC(F)(F)F)c(F)c3)cnc2N2CC[C@H](CO)C2)c1` [Example 203, (S)-5′-Cyano-N-(3-fluoro-4-(trifluoromethoxy)phenyl)-2-(3-(hydroxymethyl)pyrrolidin-1-yl)-[3,3′-bipyridine]-5-carboxamide], in that order: 0.9 nM and 1 nM.
The matching figures for `O=C(Nc1ccc(OC(F)(F)F)c(Cl)c1)c1cnc(N2CC[C@@H](O)C2)c(-c2cncnc2)c1` [Example 204, (R)—N-(3-Chloro-4-(trifluoromethoxy)phenyl)-6-(3-hydroxypyrrolidin-1-yl)-5-(pyrimidin-5-yl)nicotinamide]: 4.3 nM and below 3 nM.
For `O=C(Nc1ccc(SC(F)(F)F)c(F)c1)c1cnc(N2CC[C@@H](O)C2)c(-c2cncnc2)c1` [Example 205, (R)—N-(3-Fluoro-4-((trifluoromethyl)thio)phenyl)-6-(3-hydroxypyrrolidin-1-yl)-5-(pyrimidin-5-yl)nicotinamide], the IC50 is below 0.13 nM in test [1] and below 3 nM in test [2].
As to `O=C(Nc1ccc(SC(F)(F)F)c(F)c1)c1cnc(N2CC[C@@H](O)C2)c(-c2cncc(F)c2)c1` [Example 206, (R)-5′-Fluoro-N-(3-fluoro-4-((trifluoromethyl)thio)phenyl)-2-(3-hydroxypyrrolidin-1-yl)-[3,3′-bipyridine]-5-carboxamide], the IC50 in test [1] was 0.5 nM; in test [2] it was 6 nM.
For `N#Cc1cncc(-c2cc(C(=O)Nc3ccc(SC(F)(F)F)c(F)c3)cnc2N2CC[C@@H](O)C2)c1` [Example 207, (R)-5′-Cyano-N-(3-fluoro-4-((trifluoromethyl)thio)phenyl)-2-(3-hydroxypyrrolidin-1-yl)-[3,3′-bipyridine]-5-carboxamide], in that order: 1.1 nM and 3 nM.
For `O=C(Nc1ccc(C(F)(F)C(F)(F)F)cc1)c1cnc(N2CC[C@@H](O)C2)c(-c2cncc(F)c2)c1` [Example 209, (R)-5′-Fluoro-2-(3-hydroxypyrrolidin-1-yl)-N-(4-(perfluoroethyl)phenyl)-[3,3′-bipyridine]-5-carboxamide], in that order: 0.5 nM and below 3 nM.
For `N#Cc1cncc(-c2cc(C(=O)Nc3ccc(C(F)(F)C(F)(F)F)cc3)cnc2N2CC[C@@H](O)C2)c1` [Example 210, (R)-5′-Cyano-2-(3-hydroxypyrrolidin-1-yl)-N-(4-(perfluoroethyl)phenyl)-[3,3′-bipyridine]-5-carboxamide], in that order: 0.8 nM and 4 nM.
`O=C(Nc1ccc(SC(F)F)cc1)c1cnc(N2CC[C@@H](O)C2)c(-c2cncnc2)c1` [Example 211, (R)—N-(4-((Difluoromethyl)thio)phenyl)-6-(3-hydroxypyrrolidin-1-yl)-5-(pyrimidin-5-yl)nicotinamide]: the figures for the half-inhibitory concentration (IC50) in test [1] and in test [2] were 3.3 nM and 11 nM, respectively.
For the molecule `Cc1ccc(-c2cc(C(=O)Nc3ccc(OC(F)(F)C(F)F)cc3)cnc2N2CC[C@@H](O)C2)cn1` [Example 213, (R)-2-(3-Hydroxypyrrolidin-1-yl)-6′-methyl-N-(4-(1,1,22-tetrafluoroethoxy)phenyl)-[3,3′-bipyridine]-5-carboxamide], the IC50 in test [1] was 16 nM; in test [2], 7 nM.
With `O=C(Nc1ccc(S(=O)(=O)C(F)(F)F)cc1)c1cnc(N2CC[C@@H](O)C2)c(-c2cncnc2)c1` [Example 214, (R)-6-(3-Hydroxypyrrolidin-1-yl)-5-(pyrimidin-5-yl)-N-(4-((trifluoromethyl)sulfonyl)phenyl)nicotinamide], the IC50 is 8.1 nM in test [1] and 8 nM in test [2].
Turning to `O=C(Nc1ccc(SC(F)(F)Cl)cc1)c1cnc(N2CC[C@@H](O)C2)c(-c2cncnc2)c1` [Example 217, (R)—N-(4-((Chlorodifluoromethyl)thio)phenyl)-6-(3-hydroxypyrrolidin-1-yl)-5-(pyrimidin-5-yl)nicotinamide], the IC50 in test [1] came out at 0.4 nM; in test [2], 2 nM.
The matching figures for `CC(C)(C)Oc1ccc(NC(=O)c2cnc(N3CC[C@@H](O)C3)c(-c3cncnc3)c2)cc1` [Example 219, (R)—N-(4-(tert-Butoxy)phenyl)-6-(3-hydroxypyrrolidin-1-yl)-5-(pyrimidin-5-yl)nicotinamide]: 16 nM and 16 nM.
For the molecule `O=C(Nc1ccc(OC(F)(F)C(F)(F)F)cc1)c1cnc(N2CC[C@@H](O)C2)c(-c2cncnc2)c1` [Example 220, (R)-6-(3-Hydroxypyrrolidin-1-yl)-N-(4-(perfluoroethoxy)phenyl)-5-(pyrimidin-5-yl)nicotinamide], the IC50 in test [1] worked out at 2.3 nM; in test [2], 6 nM.
For `O=C(Nc1ccc(OC(F)(F)C(F)(F)F)cc1)c1cnc(N2CC[C@@H](O)C2)c(-c2cncc(F)c2)c1` [Example 221, (R)-5′-Fluoro-2-(3-hydroxypyrrolidin-1-yl)-N-(4-(perfluoroethoxy)phenyl)-[3,3′-bipyridine]-5-carboxamide], in that order: 1.3 nM and 10 nM.
Take `N[C@]1(C(F)(F)F)CCN(c2ncc(C(=O)Nc3ccc(OC(F)(F)F)cc3)cc2-c2cncnc2)C1` [Example 223, (R)-6-(3-Amino-3-(trifluoromethyl)pyrrolidin-1-yl)-5-(pyrimidin-5-yl)-N-(4-(trifluoromethoxy)phenyl)nicotinamide]: the IC50 in test [1] worked out at 10 nM; in test [2], 0.2 nM.
With `O=C(Nc1ccc(OC(F)(F)F)cc1)c1cnc(N2CCC(F)(F)C2)c(-c2cncnc2)c1` [Example 224, 6-(3,3-Difluoropyrrolidin-1-yl)-5-(pyrimidin-5-yl)-N-(4-(trifluoromethoxy)phenyl)nicotinamide], the half-inhibitory concentration (IC50) stood at 4.7 nM in test [1] and 1.6 nM in test [2].
Turning to `CN(C)[C@H]1CN(c2ncc(C(=O)Nc3ccc(OC(F)(F)F)cc3)cc2-c2cncnc2)C[C@@H]1O` [Example 225, 6-((3S,4S)-3-(Dimethylamino)-4-hydroxypyrrolidin-1-yl)-5-(pyrimidin-5-yl)-N-(4-(trifluoromethoxy)phenyl)nicotinamide], the values for the IC50 in test [1] and in test [2] were 8.5 nM and 2 nM, respectively.
Regarding `N[C@@H]1[C@H]2CN(c3ncc(C(=O)Nc4ccc(OC(F)(F)F)cc4)cc3-c3cncnc3)C[C@@H]12` [Example 227], the figures for the IC50 in test [1] and in test [2] were 1.6 nM and 0.9 nM, respectively.
Regarding `O=C(Nc1ccc(OC(F)(F)F)cc1)c1cnc(N2Cc3cn[nH]c3C2)c(-c2cncnc2)c1` [Example 228], the IC50 in test [1] was 1.1 nM; in test [2] it was 1 nM.
Take `O=C(Nc1ccc(OC(F)(F)F)cc1)c1cnc(N2CCNC3(CC3)C2)c(-c2cncnc2)c1` [Example 229]: the IC50 in test [1] worked out at 2.4 nM; in test [2], 1 nM.
The matching figures for `CN(C)C1CN(c2ncc(C(=O)Nc3ccc(OC(F)(F)F)cc3)cc2-c2cncnc2)C1` [Example 232]: 5.3 nM and 6 nM.
For `O=C(Nc1ccc(OC(F)(F)F)cc1)c1cnc(N2CCCOCC2)c(-c2cncnc2)c1` [Example 233], in that order: 4 nM and 2.4 nM.

As a reminder, the IC50 is the concentration that inhibits the measured activity by half.

These data come from patent US9278981B2, “Compounds and compositions for inhibiting the activity of ABL1, ABL2 and BCR-ABL1” (Novartis AG, priority 2012, dated 2016).
